Molecules are shown by their SMILES. pEC50: −log10 of the molar value. Bounds are passed on as bounds.

In the test the test system is H9C2 cells. Description: Cell protection effect against t-BHP in heart cells (LDH release). It is filed as cell-based. Conditions: H9C2, t-BHP 40 μM, 2 hours. As for the experimental part:
In order to identify the protective effect with regard to heart cells, H9C2 cells were divided into 96-well plates by 1.5×10^4, and cultured for 24 hours. The respective wells were treated with compounds of the examples 3× serial diluted to final concentrations of […], then cultured for 15 to 20 minutes. After treating with t-BHP with a final concentration of 40 μM, culturing was performed for 2 hours. In order to identify the protective effect of each compound, a Cytotoxicity LDH assay kit [Dojindo; CK12] was used to measure the degree of extracellular secretion of LDH. To describe briefly, at the time point 2-hour treatment of the cells with t-BHIP was completed, 100 μL each of the supernatant in which the cells were placed was collected and moved to a new 96-well plate. 100 μL/well of the assay buffer included in the kit (same amount as the sample) was added, followed by wrapping with foil and reacting for 30 minutes at room temperature. Observing the change in color of the sample, 50 μL/well of stop solution was added, then an iD3 spectrometer was used to measure absorbance at 490 nm and calculate the EC50 values. The EC50 of the compounds of the examples is preferably no more than 1.0 μM, and more preferably no more than 0.3 μM.
On the technique in general: LDH in the medium is a marker of cell lysis.
In the case of `COCc1cc(NCC2CCOCC2)c2[nH]c(-c3ccccc3)cc2c1` [Example 3, 5-(methoxymethyl)-2-phenyl-N-(tetrahydropyran-4-ylmethyl)-1H-indol-7-amine], the pEC50 – broadly, the negative decadic logarithm of the EC50, by convention in mol/L – is not below 6.52.
The same measure for `COCc1cc(NC2CCS(=O)(=O)CC2)c2[nH]c(-c3ccccc3)cc2c1` [Example 4, N-(1,1-dioxothian-4-yl)-5-(methoxymethyl)-2-phenyl-1H-indol-7-amine]: not below 6.52; for `COCc1cc(NC2CCN(S(C)(=O)=O)CC2)c2[nH]c(-c3ccccc3)cc2c1` [Example 5, 5-(methoxymethyl)-N-(1-methylsulfonyl-4-piperidyl)-2-phenyl-1H-indol-7-amine]: not below 6.52; for `COCc1cc(NC2CCN(C(C)=O)CC2)c2[nH]c(-c3ccccc3)cc2c1` [Example 6, 1-[4-[[5-(methoxymethyl)-2-phenyl-1H-indol-7-yl]amino]-1-piperidyl]ethanone]: not below 6.52.
In turn, `COCc1cc(NC2CCC(F)(F)CC2)c2[nH]c(-c3ccccc3)cc2c1` [Example 7, N-(4,4-difluorocyclohexyl)-5-(methoxymethyl)-2-phenyl-1H-indol-7-amine] showed a pEC50 not below 6.52.
In turn, `COCc1cc(NCc2ccccc2)c2[nH]c(-c3ccccc3)cc2c1` [Example 8, N-benzyl-5-(methoxymethyl)-2-phenyl-1H-indol-7-amine] showed a pEC50 not below 6.52.
Regarding `COCc1cc(NC2CCN(C(=O)OC(C)(C)C)CC2)c2[nH]c(-c3ccccc3)cc2c1` [Example 9, tert-butyl 4-[[5-(methoxymethyl)-2-phenyl-1H-indol-7-yl]amino]-piperidine-1-carboxylate], the pEC50 was not below 6.52.
As for `COCc1cc(NC(C)C)c2[nH]c(-c3ccccc3)cc2c1` [Example 10, N-isopropyl-5-(methoxymethyl)-2-phenyl-1H-indol-7-amine], the pEC50 was not below 6.52.
The same measure for `COCc1cc(NC2CCN(C)CC2)c2[nH]c(-c3ccccc3)cc2c1` [Example 11, 5-(methoxymethyl)-N-(1-methyl-4-piperidyl)-2-phenyl-1H-indol-7-amine]: not below 6.52; for `COCCNc1cc(COC)cc2cc(-c3ccccc3)[nH]c12` [Example 12, N-(2-methoxyethyl)-5-(methoxymethyl)-2-phenyl-1H-indol-7-amine]: not below 6.52; for `COCCCNc1cc(COC)cc2cc(-c3ccccc3)[nH]c12` [Example 13, 5-(methoxymethyl)-N-(3-methoxypropyl)-2-phenyl-1H-indol-7-amine]: not below 6.52.
The same measure for `CC(C)(C)OCc1cc(NC2CCOCC2)c2[nH]c(-c3ccccc3)cc2c1` [Example 15, 5-(tert-butoxymethyl)-2-phenyl-N-tetrahydropyran-4-yl-1H-indol-7-amine]: not below 6.52; for `CC(C)(C)OCc1cc(NC2CCCC2)c2[nH]c(-c3ccccc3)cc2c1` [Example 16, 5-(tert-butoxymethyl)-N-cyclopentyl-2-phenyl-1H-indol-7-amine]: not below 6.52.
As to `CC(C)(C)OCc1cc(N(C2CCCC2)C2CCCC2)c2[nH]c(-c3ccccc3)cc2c1` [Example 17, 5-(tert-butoxymethyl)-N,N-dicyclopentyl-2-phenyl-1H-indol-7-amine], the negative-log EC50 (pEC50) was not below 6.52.
Under `COCc1cc(NC2CCOCC2)c2[nH]cc(-c3ccccc3)c2c1` [Example 18, 5-(methoxymethyl)-3-phenyl-N-tetrahydropyran-4-yl-1H-indol-7-amine] stands not below 6.52.
`CCOCc1cc(NC2CCOCC2)c2[nH]c(-c3ccccc3)cc2c1` [Example 20, 5-(ethoxymethyl)-2-phenyl-N-(tetrahydro-2H-pyran-4-yl)-1H-indol-7-amine] had a pEC50 not below 6.52.
Under `CC(C)OCc1cc(NC2CCCC2)c2[nH]c(-c3ccccc3)cc2c1` [Example 21, N-cyclopentyl-5-(isopropoxymethyl)-2-phenyl-1H-indol-7-amine] stands not below 6.52.
Take `CC(C)OCc1cc(NC2CCOCC2)c2[nH]c(-c3ccccc3)cc2c1` [Example 22, 5-(isopropoxymethyl)-2-phenyl-N-(tetrahydro-2H-pyran-4-yl)-1H-indol-7-amine]: the pEC50 was not below 6.52.
Consider `CCOCc1cc(NC2CCCC2)c2[nH]c(-c3ccccc3)c(C#N)c2c1` [Example 23, 7-(cyclopentylamino)-5-(ethoxymethyl)-2-phenyl-1H-indole-3-carbonitrile], for which the pEC50 was not below 6.52.
The compound `CCOCc1cc(NC2CCOCC2)c2[nH]c(-c3ccccc3)c(C#N)c2c1` [Example 24, 5-(ethoxymethyl)-2-phenyl-7-((tetrahydro-2H-pyran-4-yl)amino)-1H-indole-3-carbonitrile] had a pEC50 of 6.00 to 6.52.
For `CCOCc1cc(NC2CCCC2)c2[nH]c(-c3ccccc3)c(/C=N/OC)c2c1` [Example 25, (E)-7-(cyclopentylamino)-5-(ethoxymethyl)-2-phenyl-1H-indole-3-carbaldehyde O-methyl oxime], the pEC50 was not below 6.52.
Compound `CCOCc1cc(N(C2CCOCC2)C2CCOCC2)c2[nH]c(-c3ccccc3)c(/C=N/OC)c2c1` [Example 26, (E)-7-(bis(tetrahydro-2H-pyran-4-yl)amino)-5-(ethoxymethyl)-2-phenyl-1H-indole-3-carbaldehyde O-methyl Oxime] showed a pEC50 of less than 6.00.
With `CCOCc1cc(NC2CCOCC2)c2[nH]c(-c3ccccc3)c(/C=N/OC)c2c1` [Example 27], the negative-log EC50 (pEC50) is not below 6.52.
With `CCOCc1cc(NC2CCCC2)c2c(c1)c(COC)c(-c1ccccc1)n2C` [Example 28, N-cyclopentyl-5-(ethoxymethyl)-3-(methoxymethyl)-1-methyl-2-phenyl-1H-indol-7-amine], the pEC50 is 6.00 to 6.52.
The compound `CCOCc1cc(NC2CCCC2)c2[nH]c(-c3ccccc3)c(/C=C/C(=O)OC)c2c1` [Example 30, methyl (E)-3-(7-(cyclopentylamino)-5-(ethoxymethyl)-2-phenyl-1H-indol-3-yl)acrylate] had a pEC50 not below 6.52.
`CCOCc1cc(NC2CCOCC2)c2[nH]c(-c3ccccc3)c(/C=C/C(=O)OC)c2c1` [Example 31, Methyl (E)-3-(5-(ethoxymethyl)-2-phenyl-7-((tetrahydro-2H-pyran-4-yl)amino)-1H-indole-3-yl)acrylate] showed a pEC50 not below 6.52.
In turn, `CCOCc1cc(NC2CCCC2)c2[nH]c(-c3ccccc3)c(C(=O)C(F)(F)F)c2c1` [Example 32, 1-(7-(cyclopentylamino)-5-(ethoxymethyl)-2-phenyl-1H-indol-3-yl)-2,2,2-trifluoroethan-1-one] showed a pEC50 not below 6.52.
`CCOCc1cc(NC2CCOCC2)c2[nH]c(-c3ccccc3)c(C(=O)C(F)(F)F)c2c1` [Example 33, 1-(5-(ethoxymethyl)-2-phenyl-7-((tetrahydro-2H-pyran-4-yl)amino)-1H-indol-3-yl)-2,2,2-trifluoro-1-one] had a negative-log EC50 (pEC50) of 6.00 to 6.52.
In the case of `CCOCc1cc(NC2CCCC2)c2[nH]c(-c3ccccc3)c(/C=C/C(=O)c3ccccc3)c2c1` [Example 34, (E)-3-(7-(cyclopentylamino)-5-(ethoxymethyl)-2-phenyl-1H-indol-3-yl)-1-phenylpropan-2-ene-1-one], the pEC50 is not below 6.52.
Under `CCOCc1cc(NC2CCOCC2)c2[nH]c(-c3ccccc3)c(/C=C/C(=O)c3ccccc3)c2c1` [Example 35, (E)-3-(5-(ethoxymethyl)-2-phenyl-7-((tetrahydro-2H-pyran-4-yl)amino)-1H-indol-3-yl)-1-phenylpropan-2-en-1-one] stands not below 6.52; under `CCOCc1cc(NC2CCCC2)c2[nH]c(-c3ccccc3)c(C(O)C(F)(F)F)c2c1` (stereo not shown) [Example 36, 1-(7-(cyclopentylamino)-5-(ethoxymethyl)-2-phenyl-1H-indol-3-yl)-2,2,2-trifluoroethan-1-ol], not below 6.52.
`CCOCc1cc(NC2CCOCC2)c2[nH]c(-c3ccccc3)c(C(O)C(F)(F)F)c2c1` (stereo not shown) [Example 37, 1-(5-(ethoxymethyl)-2-phenyl-7-((tetrahydro-2H-pyran-4-yl)amino)-1H-indol-3-yl)-2,2,2-trifluoro-1-ol]: the pEC50 was 6.00 to 6.52.
The same measure for `CCOCc1cc(NC2CCCC2)c2[nH]c(-c3ccccc3)c(CCC(=O)OC)c2c1` [Example 38, Methyl 3-(7-(cyclopentylamino)-5-(ethoxymethyl)-2-phenyl-1H-indol-3-yl)propanoate]: not below 6.52.
The compound `CCOCc1cc(NC2CCOCC2)c2[nH]c(-c3ccccc3)c(CCC(=O)OC)c2c1` [Example 39, Methyl 3-(5-(ethoxymethyl)-2-phenyl-7-((tetrahydro-2H-pyran-4-yl)amino)-1H-indol-3-yl)propanoate] had a pEC50 not below 6.52.
In the case of `CCOCc1cc(NC2CCCC2)c2[nH]c(-c3ccccc3)c(CCC(=O)O)c2c1` [Example 40, 3-(7-(cyclopentylamino)-5-(ethoxymethyl)-2-phenyl-1H-indol-3-yl)propanoic acid], the pEC50 was less than 6.00.
Compound `COCCc1cc(NC2CCCC2)c2[nH]c(-c3ccccc3)cc2c1` [Example 42, N-cyclopentyl-5-(2-methoxyethyl)-2-phenyl-1H-indol-7-amine] gave a pEC50 not below 6.52.
The same measure for `CCOCc1cc(NC2CCCC2)c2[nH]c(-c3ccccc3)c(-c3nccn3C(=O)OCC)c2c1` [Example 43, Ethyl 2-(7-(cyclopentylamino)-5-(ethoxymethyl)-2-phenyl-1H-indol-3-yl)-1H-imidazole-1-carboxylate]: 6.00 to 6.52.

The values are drawn from patent publication US20250289785A1, “INDOLE DERIVATIVE, METHOD FOR PREPARING SAME, AND USE THEREOF” (MITOIMMUNE THERAPEUTICS INC., priority 2021, published 2025).
